According to ChEMBL document CHEMBL3885861, “Open TG-GATES”:

Species on record: Rattus norvegicus
Test: Open TG-GATES - Regimen: Daily Repeat
Assay type: toxicity, organism-based, Sprague-Dawley
Set-up: regimen Daily Repeat, gender Male, age 6 weeks
Conditions: in vivo, po, route gavage; for APTT / Bas / Eos / Fbg / Hb / Ht / Lym / MCH / MCHC / MCV / Mono / Neu / PT / Plat / RBC / Ret / WBC: tissue Blood; for KIDNEY_L / KIDNEY_R / KIDNEY_TOTAL: tissue Kidney; for LIVER: tissue Liver; for A/G / ALP / ALT / AST / BUN / CRE / Ca / Cl / DBIL / GLC / IP / K / LDH / Na / PL / RALB / TBIL / TC / TG / TP / gamma-GTP: tissue Plasma
[1] = 300 mg/kg, 72 h, dose level Middle, time 3 day
[2] = 300 mg/kg, […], dose level Middle, time 7 day
[3] = 300 mg/kg, […], dose level Middle, time 14 day
[4] = 300 mg/kg, […], dose level Middle, time 28 day
[5] = 1000 mg/kg, 72 h, dose level High, time 3 day
[6] = 1000 mg/kg, […], dose level High, time 7 day
[7] = 1000 mg/kg, […], dose level High, time 14 day
[8] = 1000 mg/kg, […], dose level High, time 28 day

## CC(S)C(=O)NCC(=O)O (centres undefined) [TIOPRONIN]
[1]
  TERMINAL_BW: 224.5 g
  APTT: 22.4 s
  Bas: 0%
  Eos: 0.8%
  Fbg: 299 mg/dL
  Hb: 13.5 g/dL
  Ht: 40%
  Lym: 78.4%
  MCH: 21.1 pg
  MCHC: 33.6%
  MCV: 62.7 fL
  Mono: 2.4%
  Neu: 17.2%
  PT: 15.2 s
  Plat: 132 x10_4/uL
  RBC: 639.8 x10_4/ul
  Ret: 7.5%
  WBC: 96 x10_2/uL
  KIDNEY_L: 1 g
  KIDNEY_R: 1 g
  KIDNEY_TOTAL: 2 g
  LIVER: 10.7 g
  A/G: 1.2
  ALP: 1564.4 IU/L
  ALT: 42 IU/L
  AST: 75.2 IU/L
  BUN: 16 mg/dL
  CRE: 0.2 mg/dL
  Ca: 10.6 mg/dL
  Cl: 105.8 meq/L
  DBIL: 0 mg/dL
  GLC: 187.4 mg/dL
  IP: 7.3 mg/dL
  K: 4.4 meq/L
  LDH: 205.6 IU/L
  Na: 140.4 meq/L
  PL: 131.4 mg/dL
  RALB: 3 g/dL
  TBIL: 0.008 mg/dL
  TC: 73.4 mg/dL
  TG: 71.2 mg/dL
  TP: 5.5 g/dL
  gamma-GTP: 1.4 IU/L
[2]
  TERMINAL_BW: 258 g
  APTT: 22.2 s
  Bas: 0%
  Eos: 1.2%
  Fbg: 330.4 mg/dL
  Hb: 14 g/dL
  Ht: 40.4%
  Lym: 77.6%
  MCH: 21.7 pg
  MCHC: 34.9%
  MCV: 62.1 fL
  Mono: 2.4%
  Neu: 18%
  PT: 15.3 s
  Plat: 121.4 x10_4/uL
  RBC: 649.6 x10_4/ul
  Ret: 6.4%
  WBC: 101.8 x10_2/uL
  KIDNEY_L: 1.1 g
  KIDNEY_R: 1.1 g
  KIDNEY_TOTAL: 2.2 g
  LIVER: 12 g
  A/G: 1.1
  ALP: 1316.6 IU/L
  ALT: 36 IU/L
  AST: 63.4 IU/L
  BUN: 15.8 mg/dL
  CRE: 0.1 mg/dL
  Ca: 10.6 mg/dL
  Cl: 106.6 meq/L
  DBIL: 0 mg/dL
  GLC: 186.4 mg/dL
  IP: 7.3 mg/dL
  K: 4.3 meq/L
  LDH: 150.2 IU/L
  Na: 140.6 meq/L
  PL: 144.6 mg/dL
  RALB: 2.9 g/dL
  TBIL: 0 mg/dL
  TC: 70.6 mg/dL
  TG: 146.2 mg/dL
  TP: 5.5 g/dL
  gamma-GTP: 1.8 IU/L
[3]
  TERMINAL_BW: 313.9 g
  APTT: 23.7 s
  Bas: 0%
  Eos: 1%
  Fbg: 287.6 mg/dL
  Hb: 14 g/dL
  Ht: 41.2%
  Lym: 83%
  MCH: 20.3 pg
  MCHC: 33.9%
  MCV: 59.7 fL
  Mono: 2.2%
  Neu: 13.2%
  PT: 15.5 s
  Plat: 109.8 x10_4/uL
  RBC: 689.8 x10_4/ul
  Ret: 5%
  WBC: 142 x10_2/uL
  KIDNEY_L: 1.2 g
  KIDNEY_R: 1.2 g
  KIDNEY_TOTAL: 2.5 g
  LIVER: 13.9 g
  A/G: 1.3
  ALP: 1441.2 IU/L
  ALT: 43.8 IU/L
  AST: 65.8 IU/L
  BUN: 20.4 mg/dL
  CRE: 0.2 mg/dL
  Ca: 10.6 mg/dL
  Cl: 106.8 meq/L
  DBIL: 0 mg/dL
  GLC: 194.6 mg/dL
  IP: 6.5 mg/dL
  K: 4.4 meq/L
  LDH: 143.4 IU/L
  Na: 140.8 meq/L
  PL: 151.8 mg/dL
  RALB: 3.1 g/dL
  TBIL: 0.004 mg/dL
  TC: 70.8 mg/dL
  TG: 155 mg/dL
  TP: 5.6 g/dL
  gamma-GTP: 2.2 IU/L
[4]
  TERMINAL_BW: 381.6 g
  APTT: 24.6 s
  Bas: 0%
  Eos: 1%
  Fbg: 323.4 mg/dL
  Hb: 15.4 g/dL
  Ht: 43.3%
  Lym: 82.6%
  MCH: 20.1 pg
  MCHC: 35.5%
  MCV: 56.6 fL
  Mono: 2%
  Neu: 12.6%
  PT: 16.1 s
  Plat: 95.9 x10_4/uL
  RBC: 764.2 x10_4/ul
  Ret: 2.6%
  WBC: 146.8 x10_2/uL
  KIDNEY_L: 1.4 g
  KIDNEY_R: 1.4 g
  KIDNEY_TOTAL: 2.9 g
  LIVER: 16.5 g
  A/G: 1.2
  ALP: 1229.6 IU/L
  ALT: 42.6 IU/L
  AST: 64.6 IU/L
  BUN: 18.6 mg/dL
  CRE: 0.2 mg/dL
  Ca: 10.9 mg/dL
  Cl: 106 meq/L
  DBIL: 0 mg/dL
  GLC: 192.4 mg/dL
  IP: 6.5 mg/dL
  K: 4.1 meq/L
  LDH: 154.2 IU/L
  Na: 143 meq/L
  PL: 142 mg/dL
  RALB: 3.3 g/dL
  TBIL: 0.016 mg/dL
  TC: 72 mg/dL
  TG: 127.6 mg/dL
  TP: 6.1 g/dL
  gamma-GTP: 1.8 IU/L
[5]
  TERMINAL_BW: 223.7 g
  APTT: 23.7 s
  Bas: 0%
  Eos: 1.2%
  Fbg: 288 mg/dL
  Hb: 13 g/dL
  Ht: 39.2%
  Lym: 73.8%
  MCH: 20.8 pg
  MCHC: 33.2%
  MCV: 62.7 fL
  Mono: 3.6%
  Neu: 20.8%
  PT: 15.8 s
  Plat: 113.1 x10_4/uL
  RBC: 626.6 x10_4/ul
  Ret: 6.9%
  WBC: 105.8 x10_2/uL
  KIDNEY_L: 1 g
  KIDNEY_R: 1 g
  KIDNEY_TOTAL: 2 g
  LIVER: 10.7 g
  A/G: 1.3
  ALP: 1581.6 IU/L
  ALT: 49.2 IU/L
  AST: 77.2 IU/L
  BUN: 15.2 mg/dL
  CRE: 0.2 mg/dL
  Ca: 10.7 mg/dL
  Cl: 105.8 meq/L
  DBIL: 0.002 mg/dL
  GLC: 186.2 mg/dL
  IP: 7.8 mg/dL
  K: 4.4 meq/L
  LDH: 173.4 IU/L
  Na: 140.8 meq/L
  PL: 131 mg/dL
  RALB: 2.9 g/dL
  TBIL: 0.014 mg/dL
  TC: 68.6 mg/dL
  TG: 83.4 mg/dL
  TP: 5.2 g/dL
  gamma-GTP: 1.8 IU/L
[6]
  TERMINAL_BW: 254.3 g
  APTT: 21.9 s
  Bas: 0%
  Eos: 1%
  Fbg: 297 mg/dL
  Hb: 13.4 g/dL
  Ht: 39.6%
  Lym: 77%
  MCH: 21.4 pg
  MCHC: 33.8%
  MCV: 63.3 fL
  Mono: 2.6%
  Neu: 18.8%
  PT: 15.4 s
  Plat: 122.7 x10_4/uL
  RBC: 626 x10_4/ul
  Ret: 6.8%
  WBC: 115.2 x10_2/uL
  KIDNEY_L: 1.1 g
  KIDNEY_R: 1.2 g
  KIDNEY_TOTAL: 2.3 g
  LIVER: 12.3 g
  A/G: 1.2
  ALP: 1407 IU/L
  ALT: 45 IU/L
  AST: 67.8 IU/L
  BUN: 18.4 mg/dL
  CRE: 0.1 mg/dL
  Ca: 10.8 mg/dL
  Cl: 105.4 meq/L
  DBIL: 0 mg/dL
  GLC: 177.2 mg/dL
  IP: 7.9 mg/dL
  K: 4.6 meq/L
  LDH: 181.4 IU/L
  Na: 140 meq/L
  PL: 132.6 mg/dL
  RALB: 2.9 g/dL
  TBIL: 0.006 mg/dL
  TC: 67.8 mg/dL
  TG: 90.8 mg/dL
  TP: 5.2 g/dL
  gamma-GTP: 1.8 IU/L
[7]
  TERMINAL_BW: 296.9 g
  APTT: 24.7 s
  Bas: 0%
  Eos: 0.8%
  Fbg: 266.2 mg/dL
  Hb: 13.9 g/dL
  Ht: 41.1%
  Lym: 81.2%
  MCH: 20.8 pg
  MCHC: 33.7%
  MCV: 61.7 fL
  Mono: 2.4%
  Neu: 14.4%
  PT: 15.9 s
  Plat: 124 x10_4/uL
  RBC: 666.8 x10_4/ul
  Ret: 5.2%
  WBC: 129.5 x10_2/uL
  KIDNEY_L: 1.3 g
  KIDNEY_R: 1.3 g
  KIDNEY_TOTAL: 2.6 g
  LIVER: 13.3 g
  A/G: 1.3
  ALP: 1175.6 IU/L
  ALT: 41.6 IU/L
  AST: 70.4 IU/L
  BUN: 23 mg/dL
  CRE: 0.2 mg/dL
  Ca: 10.5 mg/dL
  Cl: 105 meq/L
  DBIL: 0 mg/dL
  GLC: 182.6 mg/dL
  IP: 7 mg/dL
  K: 4.4 meq/L
  LDH: 182.6 IU/L
  Na: 140.2 meq/L
  PL: 125.4 mg/dL
  RALB: 3.1 g/dL
  TBIL: 0.01 mg/dL
  TC: 60 mg/dL
  TG: 120.2 mg/dL
  TP: 5.6 g/dL
  gamma-GTP: 2 IU/L
[8]
  TERMINAL_BW: 364.7 g
  APTT: 24.2 s
  Bas: 0%
  Eos: 1.2%
  Fbg: 300.8 mg/dL
  Hb: 15 g/dL
  Ht: 42.6%
  Lym: 79%
  MCH: 19.2 pg
  MCHC: 35.3%
  MCV: 54.5 fL
  Mono: 1.8%
  Neu: 16.2%
  PT: 16.1 s
  Plat: 98.3 x10_4/uL
  RBC: 781.4 x10_4/ul
  Ret: 3.1%
  WBC: 124 x10_2/uL
  KIDNEY_L: 1.5 g
  KIDNEY_R: 1.5 g
  KIDNEY_TOTAL: 3 g
  LIVER: 15.3 g
  A/G: 1.2
  ALP: 1066 IU/L
  ALT: 49.2 IU/L
  AST: 71.4 IU/L
  BUN: 17 mg/dL
  CRE: 0.2 mg/dL
  Ca: 10.9 mg/dL
  Cl: 104.2 meq/L
  DBIL: 0 mg/dL
  GLC: 180 mg/dL
  IP: 7.5 mg/dL
  K: 4 meq/L
  LDH: 154.6 IU/L
  Na: 142.6 meq/L
  PL: 135 mg/dL
  RALB: 3.2 g/dL
  TBIL: 0.03 mg/dL
  TC: 63 mg/dL
  TG: 106.2 mg/dL
  TP: 5.8 g/dL
  gamma-GTP: 2 IU/L
